Where a name gives a salt, the structure may show the parent alone.
How the values were obtained:
Type in all cases: biochemical
[1] = molecular target: T1, recombinant human DAO (diamine oxidase) (Homo sapiens, UniProt P19801); test: Activity on recombinant human DAO, Amplex Red method, 1 mM putrescine substrate; settings: recombinant human DAO, 1 mM putrescine; * = between 10 and 100 nM, ** = between 300 and 1000 nM; read-out: Inhibitory Activity (IC50, nM) DAO
T1 construct: purchased R&D systems
T1 sequence (P19801 20-751): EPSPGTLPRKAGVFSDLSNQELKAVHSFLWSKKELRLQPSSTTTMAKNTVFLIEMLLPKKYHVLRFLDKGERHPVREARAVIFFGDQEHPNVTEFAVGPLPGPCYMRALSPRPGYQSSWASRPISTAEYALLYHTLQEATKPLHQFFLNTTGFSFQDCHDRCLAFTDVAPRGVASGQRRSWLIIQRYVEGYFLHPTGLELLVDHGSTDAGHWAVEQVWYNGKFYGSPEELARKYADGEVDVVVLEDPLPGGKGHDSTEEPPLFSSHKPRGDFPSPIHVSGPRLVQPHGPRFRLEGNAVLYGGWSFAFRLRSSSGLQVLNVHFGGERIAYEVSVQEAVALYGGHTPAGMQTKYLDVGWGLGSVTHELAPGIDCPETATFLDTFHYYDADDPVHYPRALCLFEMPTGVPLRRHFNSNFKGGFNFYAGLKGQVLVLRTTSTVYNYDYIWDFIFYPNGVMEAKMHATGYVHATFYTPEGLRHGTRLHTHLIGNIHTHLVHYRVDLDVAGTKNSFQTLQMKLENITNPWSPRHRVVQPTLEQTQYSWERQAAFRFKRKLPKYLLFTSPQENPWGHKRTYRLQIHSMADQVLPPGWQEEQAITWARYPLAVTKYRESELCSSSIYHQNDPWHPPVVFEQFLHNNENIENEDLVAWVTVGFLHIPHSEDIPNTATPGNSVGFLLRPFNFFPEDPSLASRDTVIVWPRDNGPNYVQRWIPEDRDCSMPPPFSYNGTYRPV
How it was run: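 Inhibition of recombinant human DAO (diamine oxidase, R&D systems) was assessed with the Amplex Red Hydrogen Peroxide Assay Kit. Hydrogen peroxide produced from 1 mM putrescine was detected through an HRP-coupled reaction that converts Amplex Red into fluorescent resorufin, read at 544 nm excitation and 590 nm emission. IC50 values came from four-parameter logistic fits in GraphPad Prism.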

[2] = molecular target: T2, recombinant human MAO-A (monoamine oxidase-A) (Homo sapiens, UniProt P21397); test: Activity on recombinant human MAO-A, Amplex Red method, 0.5 mM tyramine substrate; settings: 0.5 mM tyramine, read-out: Inhibitory Activity (IC50, nM) MAO-A
T2 construct: purchased Sigma-Aldrich
T2 sequence (P21397 1-527): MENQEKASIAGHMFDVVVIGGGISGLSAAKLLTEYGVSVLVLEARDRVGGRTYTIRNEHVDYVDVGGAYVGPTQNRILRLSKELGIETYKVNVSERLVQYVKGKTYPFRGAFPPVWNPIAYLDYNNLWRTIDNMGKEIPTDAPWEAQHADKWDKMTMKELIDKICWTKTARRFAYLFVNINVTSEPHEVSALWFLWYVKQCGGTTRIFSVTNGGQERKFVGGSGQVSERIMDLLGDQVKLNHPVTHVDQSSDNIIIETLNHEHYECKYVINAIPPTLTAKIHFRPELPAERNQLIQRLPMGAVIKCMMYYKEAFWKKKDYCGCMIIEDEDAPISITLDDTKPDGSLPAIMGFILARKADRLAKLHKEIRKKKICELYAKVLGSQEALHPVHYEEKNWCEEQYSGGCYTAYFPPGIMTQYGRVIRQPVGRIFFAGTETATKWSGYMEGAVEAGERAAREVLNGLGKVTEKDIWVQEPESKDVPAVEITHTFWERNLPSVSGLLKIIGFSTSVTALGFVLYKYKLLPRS
Protocol: The compounds according to the present technology were evaluated in terms of activity on recombinant human VAP-1 (R&D systems) by measuring the level of hydrogen peroxide in horseradish peroxidase (HRP)-coupled reaction using Amplex Red Hydrogen Peroxide Assay Kit (Molecular Probes, Invitrogen, USA). The experiment was carried out at room temperature using benzylamine as a substrate. In the HRP-coupled reaction, hydrogen peroxide oxidation of 10-acetyl-3,7-dihydroxyphenoxazine (Amplex Red reagent) produces resorufin, which is a highly fluorescent compound. Briefly, the test compound was dissolved in dimethyl sulfoxide (DMSO) at a concentration of 20 mM. The dose-response assessment was made by 1:3 serial dilution in DMSO, thereby creating an 8 point curve. The concentration of the upper part was controlled according to the efficacy of the compounds, followed by dilution with a reaction buffer solution to obtain a final DMSO concentration less than 1%. To each well of a 96 black well plate, human VAP-1 purified in 50 mM sodium phosphate buffer solution (pH7.4) was added. The test compounds dissolved in DMSO were incubated with the human VAP-1 enzymes at 37° C. for 30 minutes. After 30-minute incubation, each well is added with a reaction mixture containing 200 uM Amplex Red reagent prepared from 50 mM sodium phosphate buffer solution (pH 7.4), 1 mM benzylamine, and 1 U/mL HRP. Fluorescence intensity was measured at several time points during 1-2 hours using a microplate reader (Flexstation3, Molecular Devices) under the wavelength condition exciting at 544 nm and reading the emission at 590 nm. The inhibitory effect of the compounds was measured as a decrease (%) in the signal rate as compared to the control group without any inhibitor (only diluted DMSO). Data was fixed to a logistic model with four variables and IC50 value was calculated using GraphPad Prism program.
In addition, the compounds according to the present technology were evaluated in terms of activity on a recombinant human MAO-A (monoamine oxidase-A, Sigma-Aldrich) and a recombinant human MAO-B (monoamine oxidase-B, Sigma-Aldrich) by using as substrates, 0.5 mM tyramine and 1 mM benzylamine, respectively, with a method similar to the activity evaluation method for recombinant human VAP-1. The compounds according to the present technology were also evaluated in terms of activity on a recombinant human DAO (diamine oxidase, R&D systems) by using as a substrate 1 mM putrescine with a method similar to the activity evaluation method for recombinant human VAP-1.

[3] = molecular target: T3, recombinant human MAO-B (monoamine oxidase-B) (Homo sapiens, UniProt P27338); test: Activity on recombinant human MAO-B, Amplex Red method, 1 mM benzylamine substrate; settings: 1 mM benzylamine, read-out: Inhibitory Activity (IC50, nM) MAO-B
T3 construct: purchased Sigma-Aldrich
T3 sequence (P27338 1-520): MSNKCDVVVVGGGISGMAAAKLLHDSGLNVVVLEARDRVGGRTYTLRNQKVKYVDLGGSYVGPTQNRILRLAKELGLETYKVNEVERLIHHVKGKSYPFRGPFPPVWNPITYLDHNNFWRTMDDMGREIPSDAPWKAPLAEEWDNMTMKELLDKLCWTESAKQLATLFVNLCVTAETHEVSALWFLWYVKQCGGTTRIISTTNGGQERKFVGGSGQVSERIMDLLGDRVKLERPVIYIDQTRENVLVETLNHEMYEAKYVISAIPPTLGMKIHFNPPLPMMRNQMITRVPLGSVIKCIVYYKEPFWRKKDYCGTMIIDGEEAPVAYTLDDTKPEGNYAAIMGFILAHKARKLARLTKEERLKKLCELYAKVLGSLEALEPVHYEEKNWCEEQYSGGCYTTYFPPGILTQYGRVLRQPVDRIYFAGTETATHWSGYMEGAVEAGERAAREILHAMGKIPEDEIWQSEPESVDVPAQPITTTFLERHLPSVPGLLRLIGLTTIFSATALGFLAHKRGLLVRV
How it was run: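 Fluorescence (544/590 nm) of resorufin formed from Amplex Red by HRP and enzyme-generated H2O2 was followed over 1-2 h. Substrates were 0.5 mM tyramine for MAO-A and 1 mM benzylamine for MAO-B; compounds were preincubated with enzyme for 30 min at 37° C. IC50 came from four-parameter logistic fitting of signal-rate inhibition.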

recombinant human VAP-1 = molecular target: T4, recombinant human VAP-1 (Homo sapiens, UniProt Q16853); test: Activity on recombinant human VAP-1, Amplex Red HRP-coupled hydrogen peroxide assay, benzylamine substrate; settings: recombinant human VAP-1, benzylamine substrate, 30 min preincubation at 37° C.; read-out: Inhibitory Activity (IC50, nM) human VAP-1
T4 construct: purchased R&D systems
T4 sequence (Q16853 1-763): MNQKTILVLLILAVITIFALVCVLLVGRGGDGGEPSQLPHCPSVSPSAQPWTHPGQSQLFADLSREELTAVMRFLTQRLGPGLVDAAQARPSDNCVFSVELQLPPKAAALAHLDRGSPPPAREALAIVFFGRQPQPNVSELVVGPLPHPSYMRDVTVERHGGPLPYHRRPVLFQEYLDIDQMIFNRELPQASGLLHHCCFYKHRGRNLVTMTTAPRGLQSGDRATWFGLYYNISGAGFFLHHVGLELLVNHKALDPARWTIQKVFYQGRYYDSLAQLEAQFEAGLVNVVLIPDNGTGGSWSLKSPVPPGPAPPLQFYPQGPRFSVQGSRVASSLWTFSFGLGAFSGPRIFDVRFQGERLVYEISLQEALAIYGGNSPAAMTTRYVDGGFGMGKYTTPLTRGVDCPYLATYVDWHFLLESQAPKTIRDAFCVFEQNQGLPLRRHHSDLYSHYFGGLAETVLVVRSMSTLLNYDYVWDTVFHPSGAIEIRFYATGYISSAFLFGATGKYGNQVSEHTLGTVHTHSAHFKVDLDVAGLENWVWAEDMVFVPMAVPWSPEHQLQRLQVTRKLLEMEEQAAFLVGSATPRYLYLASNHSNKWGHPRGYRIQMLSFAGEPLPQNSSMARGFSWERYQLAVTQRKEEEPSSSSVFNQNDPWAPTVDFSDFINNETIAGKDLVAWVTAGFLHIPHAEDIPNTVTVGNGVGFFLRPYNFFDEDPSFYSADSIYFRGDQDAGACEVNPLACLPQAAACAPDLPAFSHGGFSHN
How it was run: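 Fluorescence of resorufin formed from H2O2 (ex 544 nm, em 590 nm) was tracked for 1-2 h after adding 1 mM benzylamine, 200 uM Amplex Red and 1 U/mL HRP to enzyme pretreated with compound for 30 min at 37 °C. IC50 values derive from four-variable logistic fits.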

Row | IC50 [1] [nM] | IC50 [2] [nM] | IC50 [3] [nM] | IC50 (recombinant human VAP-1) [nM] | Structure (SMILES)
1 | 25 | > 100000 | 2300 | 2.4 | NC/C(=C\F)Cn1ncn(-c2ccc(Br)nc2)c1=O [Example 25, 2-[(2E)-2-(aminomethyl)-3-fluoroprop-2-en-1-yl]-4-(6-bromopyridin-3-yl)-2,4-dihydro-3H-1,2,4-triazol-3-one hydrochloride]
2 | 14 | > 100000 | 9.4 | 5.3 | Cc1cc(-n2cnn(C/C(=C\F)CN)c2=O)cnc1Br [Example 26, 2-[(2Z)-2-(aminomethyl)-3-fluoroprop-2-en-1-yl]-4-(6-bromo-5-methylpyridin-3-yl)-2,4-dihydro-3H-1,2,4-triazol-3-one hydrochloride]
3 | 5.4 | > 100000 | 63 | 2.5 | Cc1cc(-n2cnn(C/C(=C/F)CN)c2=O)cnc1Br [Example 27, 2-[(2E)-2-(aminomethyl)-3-fluoroprop-2-en-1-yl]-4-(6-bromo-5-methylpyridin-3-yl)-2,4-dihydro-3H-1,2,4-triazol-3-one hydrochloride]
4 | 25 | 2600 | 28 | 1.2 | NC/C(=C/F)Cn1ncn(-c2ccc(Br)cn2)c1=O [Example 29, 2-[(2Z)-2-(aminomethyl)-3-fluoroprop-2-en-1-yl]-4-(5-bromopyridin-2-yl)-2,4-dihydro-3H-1,2,4-triazol-3-one hydrochloride]
5 | 13 | 1900 | 1700 | 0.61 | NC/C(=C\F)Cn1ncn(-c2ccc(Br)cn2)c1=O [Example 30, 2-[(2E)-2-(aminomethyl)-3-fluoroprop-2-en-1-yl]-4-(5-bromopyridin-2-yl)-2,4-dihydro-3H-1,2,4-triazol-3-one hydrochloride]
6 | > 100000 | 93000 | 51 | 2.2 | Cc1cc(Br)cnc1-n1cnn(C/C(=C/F)CN)c1=O [Example 32, 2-[(2E)-2-(aminomethyl)-3-fluoroprop-2-en-1-yl]-4-(5-bromo-3-methylpyridin-2-yl)-2,4-dihydro-3H-1,2,4-triazol-3-one hydrochloride]
7 | 13 | 6100 | 363 | 0.6 | Cc1cc(-n2cnn(C/C(=C/F)CN)c2=O)ncc1Br [Example 34, 2-[(2E)-2-(aminomethyl)-3-fluoroprop-2-en-1-yl]-4-(5-bromo-4-methylpyridin-2-yl)-2,4-dihydro-3H-1,2,4-triazol-3-one hydrochloride]
8 | 14 | 1500 | 503 | 6.6 | NC/C(=C/F)Cn1ncn(-c2ncc(Br)cc2F)c1=O [Example 35, 2-[(2Z)-2-(aminomethyl)-3-fluoroprop-2-en-1-yl]-4-(5-bromo-3-fluoropyridin-2-yl)-2,4-dihydro-3H-1,2,4-triazol-3-one hydrochloride]
9 | 23 | > 100000 | 3350 | 1.2 | NC/C(=C\F)Cn1ncn(-c2ncc(Br)cc2F)c1=O [Example 36, 2-[(2E)-2-(aminomethyl)-3-fluoroprop-2-en-1-yl]-4-(5-bromo-3-fluoropyridin-2-yl)-2,4-dihydro-3H-1,2,4-triazol-3-one hydrochloride]
